Data as given in PubChem BioAssay (NCI).
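1) Cells in 96-well plates. 2) Compound, 48 h, 5 concentrations. 3) Linear interpolation between surrounding doses. 4) Unreached endpoint = highest concentration. Definition used: TGI = concentration required for complete inhibition of growth.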

Columns and labels:
Experiment in all cases: NCI-60 cell line screen, 48 h
[1] = tested on: HOP-92 NSCLC
[2] = tested on: UO-31 renal
[3] = tested on: NCI-H23 lung
[4] = tested on: SR leukemia
[5] = tested on: HT29 colon
[6] = tested on: U251 CNS
[7] = tested on: SF-295 CNS
[8] = tested on: MOLT-4 leukemia
[9] = tested on: PC-3 prostate
[10] = tested on: RXF 393 renal
[11] = tested on: CCRF-CEM leukemia
[12] = tested on: SF-539 CNS
[13] = tested on: IGROV1 ovarian
[14] = tested on: TK-10 renal
[15] = tested on: SW-620 colon
[16] = tested on: SK-MEL-2 melanoma
[17] = tested on: SF-268 CNS
[18] = tested on: UACC-62 melanoma
[19] = tested on: NCI-H460 lung
[20] = tested on: OVCAR-3 ovarian
[21] = tested on: A498 renal
[22] = tested on: 786-0 renal
[23] = tested on: MALME-3M melanoma
[24] = tested on: NCI/ADR-RES ovarian
[25] = tested on: SNB-19 CNS
[26] = tested on: SK-MEL-5 melanoma
[27] = tested on: ACHN renal
[28] = tested on: DU-145 prostate
[29] = tested on: HCT-15 colon
[30] = tested on: OVCAR-5 ovarian
[31] = tested on: COLO 205 colon
[32] = tested on: HCC-2998 colon
[33] = tested on: HOP-62 NSCLC
[34] = tested on: NCI-H226 lung
[35] = tested on: RPMI-8226 leukemia
[36] = tested on: NCI-H522 lung
[37] = tested on: HS 578T breast
[38] = tested on: A549 NSCLC
[39] = tested on: SNB-75 CNS
[40] = tested on: MCF7 breast
[41] = tested on: MDA-N
[42] = tested on: OVCAR-4 ovarian
[43] = tested on: EKVX NSCLC
[44] = tested on: MDA-MB-231 breast
[45] = tested on: K-562 leukemia
[46] = tested on: SK-OV-3 ovarian
[47] = tested on: T-47D breast
[48] = tested on: BT-549 breast
[49] = tested on: LOX IMVI melanoma
[50] = tested on: OVCAR-8 ovarian
[51] = tested on: SK-MEL-28 melanoma
[52] = tested on: HCT-116 colon
[53] = tested on: HL-60(TB) leukemia
[54] = tested on: SN12C renal
[55] = tested on: M14 melanoma
[56] = tested on: UACC-257 melanoma
[57] = tested on: MDA-MB-435
[58] = tested on: CAKI-1 renal

## COc1cc(C2c3[nH]c4ccccc4c3[C@@H](Nc3ccc(C#N)cc3)[C@H]3COC(=O)N23)cc(OC)c1O (stereo partly drawn)
[1]
  TGI: > 4610 nM
[2]
  TGI: 2570 nM
[3]
  TGI: 2550 nM
[4]
  TGI: 59 nM
[5]
  TGI: > 10000 nM
[6]
  TGI: 1320 nM
[7]
  TGI: 734 nM
[8]
  TGI: 63.4 nM
[9]
  TGI: 6600 nM
[10]
  TGI: 4120 nM
[11]
  TGI: 404 nM
[12]
  TGI: 208 nM
[13]
  TGI: 3000 nM
[14]
  TGI: 866 nM
[15]
  TGI: 1490 nM
[16]
  TGI: 752 nM
[17]
  TGI: 909 nM
[18]
  TGI: 651 nM
[19]
  TGI: 342 nM
[20]
  TGI: 2210 nM
[21]
  TGI: 777 nM
[22]
  TGI: 337 nM
[23]
  TGI: 1200 nM
[24]
  TGI: > 10000 nM
[25]
  TGI: > 10000 nM
[26]
  TGI: 321 nM
[27]
  TGI: 621 nM
[28]
  TGI: 839 nM
[29]
  TGI: 5560 nM
[30]
  TGI: 4540 nM
[31]
  TGI: > 3810 nM
[32]
  TGI: 704 nM
[33]
  TGI: 1540 nM
[34]
  TGI: 651 nM
[35]
  TGI: 688 nM
[36]
  TGI: 547 nM
[37]
  TGI: 2490 nM
[38]
  TGI: 421 nM
[39]
  TGI: 763 nM
[40]
  TGI: 2700 nM
[41]
  TGI: 1570 nM
[42]
  TGI: 4400 nM
[43]
  TGI: 4320 nM
[44]
  TGI: 2140 nM
[45]
  TGI: > 10000 nM
[46]
  TGI: 1040 nM
[47]
  TGI: 3500 nM
[48]
  TGI: 796 nM
[49]
  TGI: 681 nM
[50]
  TGI: 933 nM
[51]
  TGI: 2730 nM
[52]
  TGI: 2110 nM
[53]
  TGI: 165 nM
[54]
  TGI: 625 nM
[55]
  TGI: 1580 nM
[56]
  TGI: 3290 nM
[57]
  TGI: 2190 nM
[58]
  TGI: 1780 nM
